Measured values: patent US12251364B2, “Treating non-alcoholic steatohepatitis with cck inhibitors” (priority 2018, dated 2025)
Entries after “also recorded” stand apart in the source; their conditions may differ.

Legend:
[1] = PIVENS trial; cited from earlier work
[2] = system: mice on 75%-CDE diet (NASH, fibrosis and HCC); experiment: Prevention study: CDE diet-induced NASH in mice, proglumide in drinking water from start of diet; format: in vivo, mouse (female C57BL/6)
Protocol: All mouse studies were performed in an ethical fashion and approved by the Institutional Animal Care and Use Committee, protocol #2016-1193 for animal research by Georgetown University. Female C57BL/6 mice (body weight of >20 g) were obtained from Charles River Laboratory (Germantown, MD). Mice were housed with five per cage with filter-top cages and housing light cycled q12 hrs; on-off. […] The first group received a modified Choline Deficient Diet with 75% Ethionine supplemented diet (CDE) as previously described by […] et al. “A modified choline-deficient, ethionine-supplemented diet reduces morbidity and retains a liver progenitor cell response in mice,” Dis Model Mech 8:1635-1641 (2015). […] The control mice received the same diet with choline. Both diets contained casein as the major source of protein and lard (saturated fat) as the primary source of fat. The diet composition is shown in Table 1 and is very similar to the Western diet (Roberts et al. “Western diet-induced hepatic steatosis and alterations in the liver transcriptome in adult Brown-Norway rats,” BMC Gastroenterol. 15:151 (2015)) where the diet consists of a high fat and high sugar and is often used in experimental animal diets to induce NAFLD. The food intake was measured by weighing food consumed to assure mice were eating equal amounts of food in each group, and animals ate ad libitum. Some mice on both diets were treated with the CCK receptor antagonist proglumide (Tocris Bioscience, Bristol, UK) at a concentration of 0.1 mg/ml and the estimated amount ingested per mouse was 30 mg/kg/d that was previously shown to block the CCK receptor (Smith et al. “Cholecystokinin receptor antagonist halts progression of pancreatic cancer precursor lesions and fibrosis in mice,” Pancreas 43:1050-1059 (2014)). Another cohort received untreated drinking water. The study design included two different parts: a “prevention study” and a “reversal study” (FIG. 1). In the prevention study, the goal was to determine if treatment with proglumide could prevent NASH, fibrosis and HCC if started at the same time of the initiation of the high fat CDE diet. Initially mice were randomized into one of four treatment group (FIG. 1). Sixty-five mice received the 75%-CDE diet and untreated drinking water (CDE/Reg). Of these (N=5 each) mice were ethically euthanized and livers dissected and analyzed histologically to assess for evidence of NASH at weeks 4 and 8. When NASH was becoming apparent, mice were continued on this diet and some (N=10) were euthanized at week 12 and some (N=25) were euthanized at week 18. Five mice died in the CDE/Reg diet in the first 12 weeks. A parallel cohort of mice (N=25) were also given the CDE diet but their drinking water was treated with the CCK-receptor antagonist proglumide. In this cohort, some (N=10) were euthanized, blood drawn, and liver examined histologically at week 12. The remainder (N=15) were euthanized and examined at week 18 to compare to the CDE/Reg group. Twenty mice each were treated with the control diet, and half (N=10) in this group received proglumide water and half received untreated drinking water. Half of the control mice were euthanized at the first time point of 12 weeks and the remainder was euthanized at the end of the experiment at 18 weeks. Subgroups of mice were ethically euthanized after CO2 asphyxiation and cervical dislocation at one of 4 different time points: weeks 4, 8, 12, or 18. Blood was collected by pericardiac puncture and centrifuged. Serum was analyzed by VRL Laboratories (Gaithersburg, MD). The following liver tests were evaluated and the normal range for mouse is shown: Alkaline phosphatase (35-275 u/L); Alanine aminotransferase, ALT (17-129 u/L); Aspartate aminotransferase, AST (46-392 u/L); and total bilirubin (0-0.9 mg/dL). The liver tissues were fixed in 4% paraformaldehyde, paraffin embedded, and 8 μm sections were cut. Mounted sections were stained with Hematoxylin & Eosin or Masson's trichrome. […]

[3] = system: mice on control high fat diet; experiment: Control high fat diet with choline, proglumide-treated versus untreated water; format: in vivo, mouse (female C57BL/6)
Protocol: All mouse studies were performed in an ethical fashion and approved by the Institutional Animal Care and Use Committee, protocol #2016-1193 for animal research by Georgetown University. Female C57BL/6 mice (body weight of >20 g) were obtained from Charles River Laboratory (Germantown, MD). Mice were housed with five per cage with filter-top cages and housing light cycled q12 hrs; on-off.
Mice were fed one of two custom high fat diets from MP Biomedicals, LLC (Solon, Ohio). The first group received a modified Choline Deficient Diet with 75% Ethionine supplemented diet (CDE) as previously described by Passman et al. “A modified choline-deficient, ethionine-supplemented diet reduces morbidity and retains a liver progenitor cell response in mice,” Dis Model Mech 8:1635-1641 (2015). […] The control mice received the same diet with choline. Both diets contained casein as the major source of protein and lard (saturated fat) as the primary source of fat. […] The food intake was measured by weighing food consumed to assure mice were eating equal amounts of food in each group, and animals ate ad libitum. […]
Subgroups of mice were ethically euthanized after CO2 asphyxiation and cervical dislocation at one of 4 different time points: weeks 4, 8, 12, or 18. […] Serum was analyzed by VRL Laboratories (Gaithersburg, MD). The following liver tests were evaluated and the normal range for mouse is shown: Alkaline phosphatase (35-275 u/L); Alanine aminotransferase, ALT (17-129 u/L); Aspartate aminotransferase, AST (46-392 u/L); and total bilirubin (0-0.9 mg/dL).
The liver tissues were fixed in 4% paraformaldehyde, paraffin embedded, and 8 μm sections were cut. […] A Liver pathologist blinded to the treatments and time period scored tissues for inflammation, fibrosis, steatosis, and whether there was evidence of dysplastic nodules or cancer (Table 2). Histology was scored for grade of inflammation (0-3), fibrosis (0-4), steatosis (0-3), balloon degeneration (0-2) and dysplasia or cancer (0-2). […]

[4] = system: mice on CDE diet with established NASH; experiment: Reversal (recovery) study: established NASH after 12 weeks of CDE diet, then proglumide for 6 weeks; format: in vivo, mouse (female C57BL/6)
Protocol: All mouse studies were performed in an ethical fashion and approved by the Institutional Animal Care and Use Committee, protocol #2016-1193 for animal research by Georgetown University. Female C57BL/6 mice (body weight of >20 g) were obtained from Charles River Laboratory (Germantown, MD). Mice were housed with five per cage with filter-top cages and housing light cycled q12 hrs; on-off. […] The first group received a modified Choline Deficient Diet with 75% Ethionine supplemented diet (CDE) as previously described by […] et al. “A modified choline-deficient, ethionine-supplemented diet reduces morbidity and retains a liver progenitor cell response in mice,” Dis Model Mech 8:1635-1641 (2015). […] The control mice received the same diet with choline. Both diets contained casein as the major source of protein and lard (saturated fat) as the primary source of fat. The diet composition is shown in Table 1 and is very similar to the Western diet (Roberts et al. “Western diet-induced hepatic steatosis and alterations in the liver transcriptome in adult Brown-Norway rats,” BMC Gastroenterol. 15:151 (2015)) where the diet consists of a high fat and high sugar and is often used in experimental animal diets to induce NAFLD. The food intake was measured by weighing food consumed to assure mice were eating equal amounts of food in each group, and animals ate ad libitum. Some mice on both diets were treated with the CCK receptor antagonist proglumide (Tocris Bioscience, Bristol, UK) at a concentration of 0.1 mg/ml and the estimated amount ingested per mouse was 30 mg/kg/d that was previously shown to block the CCK receptor (Smith et al. “Cholecystokinin receptor antagonist halts progression of pancreatic cancer precursor lesions and fibrosis in mice,” Pancreas 43:1050-1059 (2014)). Another cohort received untreated drinking water. The reversal study, took mice that had been on the CDE diet and untreated water (CDE/Reg) for 12 weeks (a time determined to result in the mice having NASH histologically and biochemical hepatitis). Mice were randomly allocated to one of two groups at 12 weeks. The first group (N=15) continued on the CDE diet and untreated water and the second group (N=15) also continued on the CDE diet but then received proglumide in the drinking water at the same concentration as the prevention study (0.1 mg/ml). The purpose of the reversal study was to see if proglumide could reverse any of the histologic and biochemical abnormalities of NASH from the 12-week CDE/regular water diet. The other group continued on the CDE diet with untreated drinking water. The animals in each group were weighed weekly. At the termination of the experiment the animal body weight and liver weight were recorded. Subgroups of mice were ethically euthanized after CO2 asphyxiation and cervical dislocation at one of 4 different time points: weeks 4, 8, 12, or 18. Blood was collected by pericardiac puncture and centrifuged. Serum was analyzed by VRL Laboratories (Gaithersburg, MD). The following liver tests were evaluated and the normal range for mouse is shown: Alkaline phosphatase (35-275 u/L); Alanine aminotransferase, ALT (17-129 u/L); Aspartate aminotransferase, AST (46-392 u/L); and total bilirubin (0-0.9 mg/dL). The liver tissues were fixed in 4% paraformaldehyde, paraffin embedded, and 8 μm sections were cut. Mounted sections were stained with Hematoxylin & Eosin or Masson's trichrome. A Liver pathologist blinded to the treatments and time period scored tissues for inflammation, fibrosis, steatosis, and whether there was evidence of dysplastic nodules or cancer (Table 2). Histology was scored for grade of inflammation (0-3), fibrosis (0-4), steatosis (0-3), balloon degeneration (0-2) and dysplasia or cancer (0-2). For analysis, a NASH score was defined as the combination of the steatosis and the balloon degeneration score. […]

[5] = CDE/Prog vs CDE/Reg, weeks 12 and 18
[6] = CDE/Reg 12 weeks then proglumide water 6 weeks

In the case of Vitamin E, the reversal of fibrosis [1] is listed as “neither compound statistically reversed fibrosis”.
For `CCCN(CCC)C(=O)C(CCC(=O)O)NC(=O)c1ccccc1` (centres unmarked) [proglumide], the “serum AST levels” value ([2]; CDE diet + proglumide 0.1 mg/ml in drinking water from day 0 (Prevention), vs CDE/Reg) was “restored to near normal; also recorded: at or near normal levels”, the “ALT serum levels, week 12” value ([2]; CDE diet + proglumide water from day 0, week 12) was “did not prevent elevation” and the “ALT serum levels, week 18” value ([2]; CDE diet + proglumide water from day 0, week 18) was “did decrease ALT values; also recorded: able to prevent this increase only after 18 weeks”. The serum total bilirubin ([2]; CDE diet + proglumide water from day 0, weeks 12 and 18, vs CDE/Reg) was “completely prevented; also recorded: prevented bilirubin level increases”, the “alkaline phosphatase blood levels” value ([2]; CDE diet + proglumide water, vs CDE/Reg) was “not prevented or reversed; also recorded: did not decrease alkaline phosphatase” and the “histologic features/changes of NASH” value [2, 5] was “significantly decreased; also recorded: prevented”. For the same compound, the histologic fibrosis score [2, 5] was “prevented; also recorded: decreased fibrosis”, the histologic inflammation score [2, 5] was “prevented; also recorded: marked decrease in inflammation; also recorded: decreased inflammation” and the histologic steatosis score [2, 5] was “prevented; also recorded: decreased steatosis”. For the same compound, the balloon degeneration ([2]; CDE/Prog, week 12 liver histology) was “minimal or no balloon degeneration”, the “mice with dysplastic nodules or HCC” value ([2]; week 18, CDE/Prog prevention arm N=15, CDE/Reg 8 of 23) was “none and no dysplasia or HCC” and the “abnormalities in hepatic blood tests or weight” value ([3]; control diet with proglumide vs untreated drinking water) was “no evidence of abnormalities”. For the same compound, the body weight ([3]; control diet, proglumide water vs untreated water) was “did not weigh more”, the liver histology ([3]; control diet, proglumide water vs untreated water, week 18) was “no evidence of NASH; also recorded: No differences” and the “serum AST levels” value ([4]; CDE/Reg 12 weeks then CDE/Prog 6 weeks (Recovery)) was “significantly decreased”. The “HCC or dysplastic nodules” value ([4]; CDE/Reg 12 weeks then CDE/proglumide 6 weeks, N=15, week 18) was “no evidence of HCC or dysplastic nodules and none”, the alkaline phosphatase levels [4, 6] was “not prevented or reversed” and the serum total bilirubin [4, 6] was “returned to the normal range; also recorded: decreased bilirubin”. The ALT serum levels ([4]; Recovery vs CDE/Reg for 18 full weeks) was “this difference was not significant”, the histologic fibrosis score ([4]; Recovery, week 18) was “able to decrease; also recorded: improved” and the histologic inflammation score ([4]; Recovery, week 18) was “able to decrease; also recorded: improved”. For the same compound, the “liver blood tests and histology” value ([4]; proglumide for 6 weeks while continuing the CDE diet) was “improved significantly”.
